Consider 1 compound from patent US8415271B2, “Biofertilizer formulation” (priority 2007, dated 2013).

The subject of the assay is wheat. Description: Field grown wheat, harvest parameters. It counts as in vivo, Triticum aestivum. The settings on record: seeds not coated. As for the experimental part:
Effect of the psychrorphilic biofertilizer was tested on field conditions on wheat cultivation in Victoria City, Temuco, Chile. Wheat seeds were disinfected and coated with the psychrophilic bacterial biofertilizer of the present invention as described in Example 3. Control seeds were disinfected and treated with water. A field of one hectare was directly sowed with the seeds using a random block experimental design with four repetitions per treatments. Further, total yield after the harvest was measured and the yield per unit area of the crop field was calculated.

Regarding `O=P(=O)OP(=O)=O` [Strain P2O5, P2O5], the “Weight 1000 grains” value reads like this: (50 Kg P2O5/ha) 33 ± 3 g; (100 Kg P2O5/ha) 37 ± 3 g; (150 Kg P2O5/ha) 35 ± 3 g. Besides, the Yield reads like this: (50 Kg P2O5/ha) 4.8 ± 0.5 ton/ha; (100 Kg P2O5/ha) 5.1 ± 0.3 ton/ha; (150 Kg P2O5/ha) 5.0 ± 0.4 ton/ha.
